Columns and labels:
corn [1] = experiment: Test C pre-/postemergence herbicide test; format: in vivo, Zea mays
Method in brief: (§1)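 Plants grown and held in a greenhouse for 13 to 15 days post-spray, then rated 0–100 by visual comparison with controls. Pre treatments targeted seeds in loam and sand; post treatments targeted 1- to 4-leaf plants in peat-based potting medium.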

morningglory = experiment: Test C pre-/postemergence herbicide test; format: in vivo, Ipomoea coccinea
Method in brief: as §1

soybean = experiment: Test C pre-/postemergence herbicide test; format: in vivo, Glycine max
Method in brief: as §1

oilseed rape = experiment: Test C pre-/postemergence herbicide test; format: in vivo, Brassica napus
Method in brief: as §1

blackgrass = experiment: Test C pre-/postemergence herbicide test; format: in vivo, Alopecurus myosuroides
Method in brief: as §1

corn [2] = experiment: Test A pre-/postemergence herbicide test; format: in vivo, Zea mays
Method in brief: (§2)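 Approximately 10 days after treatment in the greenhouse, plants were compared with untreated controls and given a 0–100 visual injury rating. Applications: preemergence directed soil spray; postemergence on 2–10 cm plants at the one- to two-leaf stage.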

lambsquarters = experiment: Test C pre-/postemergence herbicide test; format: in vivo, Chenopodium album
Method in brief: as §1

barnyardgrass = experiment: Test A pre-/postemergence herbicide test; format: in vivo, Echinochloa crus-galli
Method in brief: as §2

ducksalad = experiment: Test B flooded paddy test; format: in vivo, Heteranthera limosa; settings: Flood, scale of 0 to 100 where 0 is no effect and 100 is complete control
Method in brief: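 Scored visually 0–100 (0 no effect, 100 complete control) versus controls after 13 to 15 greenhouse days. Treatment: compound added to paddy water kept 3 cm above soil, on 2-leaf-stage plants.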

pigweed = experiment: Test A pre-/postemergence herbicide test; format: in vivo, Amaranthus retroflexus
Method in brief: as §2

nutsedge, yellow = experiment: Test C pre-/postemergence herbicide test; format: in vivo, Cyperus esculentus
Method in brief: as §1

[3] = Preemergence, 31 g ai/ha, scale 0 to 100, 0 is no effect and 100 is complete control
[4] = Preemergence, 62 g ai/ha, scale 0 to 100 (0 no effect, 100 complete control)
[5] = Preemergence, 125 g ai/ha, scale 0 to 100 (0 no effect, 100 complete control)
[6] = Postemergence, 125 g ai/ha, 0 to 100 scale, 0 is no effect, 100 is complete control
[7] = Postemergence, 500 g ai/ha, 0 to 100 scale (0 no effect, 100 complete control)
[8] = Preemergence, 125 g ai/ha, 0 to 100 scale where 0 is no effect and 100 is complete control
[9] = preemergence, 500 g ai/ha, 0 to 100 scale, 0 is no effect and 100 is complete control
[10] = Postemergence, 31 g ai/ha, scale 0 to 100 (0 no effect, 100 complete control)
[11] = Postemergence, 62 g ai/ha, scale 0 (no effect) to 100 (complete control)
[12] = Postemergence, 125 g ai/ha, scale 0 to 100 (0 no effect, 100 complete control)
[13] = Postemergence, 250 g ai/ha, scale 0 to 100 (0 no effect, 100 complete control)

## O=C1NCC(c2cccc(C(F)(F)F)c2)C1C(=O)Nc1cccc(F)c1F (stereo not shown) [Compound 241]
Corn [1]; [3]
  Corn plant response rating: 85
Corn [1]; [4]
  Corn plant response rating: 65
Corn [1]; [5]
  Plant response rating, Corn: 80
Corn [1]; Preemergence, 250 g ai/ha
  Plant response rating (scale of 0 to 100), Corn: 90
morningglory; [3]
  Morningglory plant response rating: 0
morningglory; [4]
  Morningglory plant response rating: 0
morningglory; [5]
  Plant response rating, Morningglory: 10
morningglory; Preemergence, 250 g ai/ha
  Plant response rating (scale of 0 to 100), Morningglory: 30
soybean; [3]
  Soybean plant response rating: 0
soybean; [4]
  Soybean plant response rating: 0
soybean; [5]
  Plant response rating, Soybean: 0
soybean; Preemergence, 250 g ai/ha
  Plant response rating (scale of 0 to 100), Soybean: 0
Oilseed rape; [3]
  Oilseed Rape plant response rating: 0
Oilseed rape; [4]
  Oilseed Rape plant response rating: 0
Oilseed rape; [5]
  Plant response rating, Oilseed Rape: 70
Oilseed rape; Preemergence, 250 g ai/ha
  Plant response rating (scale of 0 to 100), Oilseed Rape: 85
blackgrass; [3]
  Blackgrass plant response rating: 50
blackgrass; Preemergence, 62 g ai/ha, scale 0 to 100
  Plant response rating, Blackgrass: 70
blackgrass; [5]
  Plant response rating, Blackgrass: 80
blackgrass; Preemergence, 250 g ai/ha
  Plant response rating (scale of 0 to 100), Blackgrass: 85
Corn [2]; [6]
  Plant response rating, Corn: 50
Corn [2]; [7]
  Plant response rating, Corn: 80
Corn [2]; [8]
  Plant response rating, Corn: 20
Corn [2]; [9]
  Plant response rating, Corn: 50
lambsquarters; [3]
  Lambsquarters plant response rating: 0
lambsquarters; [4]
  Lambsquarters plant response rating: 0
lambsquarters; [5]
  Plant response rating, Lambsquarters: 10
lambsquarters; Preemergence, 250 g ai/ha
  Plant response rating (scale of 0 to 100), Lambsquarters: 100
barnyardgrass; [6]
  Plant response rating, Barnyardgrass: 80
barnyardgrass; [7]
  Plant response rating, Barnyardgrass: 90
barnyardgrass; [8]
  Plant response rating, Barnyardgrass: 80
barnyardgrass; [9]
  Plant response rating, Barnyardgrass: 90
ducksalad; 250 g ai/ha
  Plant response rating, Ducksalad: 100
ducksalad; 1000 g ai/ha
  Plant response rating, Ducksalad: 100
pigweed; [6]
  Plant response rating, Pigweed: 0
pigweed; [7]
  Plant response rating, Pigweed: 20
pigweed; [8]
  Plant response rating, Pigweed: 0
pigweed; [9]
  Plant response rating, Pigweed: 30
nutsedge, yellow; [3]
  Nutsedge, Yellow plant response rating: 0
nutsedge, yellow; [4]
  Nutsedge, Yellow plant response rating: 0
nutsedge, yellow; [5]
  Plant response rating, Nutsedge, Yellow: 0
nutsedge, yellow; Preemergence, 250 g ai/ha
  Plant response rating (scale of 0 to 100), Nutsedge, Yellow: 0

## O=C1NCC(c2cc(F)cc(F)c2)C1C(=O)Nc1cccc(F)c1F (racemic) [Compound 279]
Corn [1]; [10]
  Plant response rating, Corn: 0
Corn [1]; [11]
  Plant response rating, Corn: 0
Corn [1]; [12]
  Plant response rating, Corn: 0
Corn [1]; [13]
  Plant response rating, Corn: 0
Corn [1]; [3]
  Corn plant response rating: 0
Corn [1]; [4]
  Corn plant response rating: 0
Corn [1]; [5]
  Plant response rating, Corn: 5
Corn [1]; Preemergence, 250 g ai/ha
  Plant response rating (scale of 0 to 100), Corn: 65
morningglory; [10]
  Plant response rating, Morningglory: 5
morningglory; [11]
  Plant response rating, Morningglory: 60
morningglory; [12]
  Plant response rating, Morningglory: 30
morningglory; [13]
  Plant response rating, Morningglory: 25
morningglory; [3]
  Morningglory plant response rating: 0
morningglory; [4]
  Morningglory plant response rating: 0
morningglory; [5]
  Plant response rating, Morningglory: 10
morningglory; Preemergence, 250 g ai/ha
  Plant response rating (scale of 0 to 100), Morningglory: 10
soybean; [10]
  Plant response rating, Soybean: 40
soybean; [11]
  Plant response rating, Soybean: 10
soybean; [12]
  Plant response rating, Soybean: 0
soybean; [13]
  Plant response rating, Soybean: 10
soybean; [3]
  Soybean plant response rating: 0
soybean; [4]
  Soybean plant response rating: 0
soybean; [5]
  Plant response rating, Soybean: 0
soybean; Preemergence, 250 g ai/ha
  Plant response rating (scale of 0 to 100), Soybean: 10
Oilseed rape; [10]
  Plant response rating, Oilseed Rape: 0
Oilseed rape; [11]
  Plant response rating, Oilseed Rape: 30
Oilseed rape; [12]
  Plant response rating, Oilseed Rape: 0
Oilseed rape; [13]
  Plant response rating, Oilseed Rape: 0
Oilseed rape; [3]
  Oilseed Rape plant response rating: 0
Oilseed rape; [4]
  Oilseed Rape plant response rating: 0
Oilseed rape; [5]
  Plant response rating, Oilseed Rape: 30
Oilseed rape; Preemergence, 250 g ai/ha
  Plant response rating (scale of 0 to 100), Oilseed Rape: 60
blackgrass; [10]
  Plant response rating, Blackgrass: 0
blackgrass; [11]
  Plant response rating, Blackgrass: 0
blackgrass; [12]
  Plant response rating, Blackgrass: 0
blackgrass; [13]
  Plant response rating, Blackgrass: 0
blackgrass; [3]
  Blackgrass plant response rating: 0
blackgrass; [4]
  Blackgrass plant response rating: 0
blackgrass; [5]
  Plant response rating, Blackgrass: 30
blackgrass; Preemergence, 250 g ai/ha
  Plant response rating (scale of 0 to 100), Blackgrass: 85
Corn [2]; [6]
  Plant response rating, Corn: 40
Corn [2]; [7]
  Plant response rating, Corn: 70
lambsquarters; [10]
  Plant response rating, Lambsquarters: 0
lambsquarters; [11]
  Plant response rating, Lambsquarters: 0
lambsquarters; [12]
  Plant response rating, Lambsquarters: 45
lambsquarters; [13]
  Plant response rating, Lambsquarters: 45
lambsquarters; [3]
  Lambsquarters plant response rating: 0
lambsquarters; [4]
  Lambsquarters plant response rating: 0
lambsquarters; [5]
  Plant response rating, Lambsquarters: 65
lambsquarters; Preemergence, 250 g ai/ha
  Plant response rating (scale of 0 to 100), Lambsquarters: 90
barnyardgrass; [6]
  Plant response rating, Barnyardgrass: 80
barnyardgrass; [7]
  Plant response rating, Barnyardgrass: 90
barnyardgrass; [8]
  Plant response rating, Barnyardgrass: 80
barnyardgrass; [9]
  Plant response rating, Barnyardgrass: 90
ducksalad; 500 g ai/ha
  Plant response rating, Ducksalad: 100
pigweed; Postemergence, 125 g ai/ha, visual rating on 0 to 100 scale (0 no effect, 100 complete control), approx. 10 days
  Plant response rating, Pigweed: 0
pigweed; [7]
  Plant response rating, Pigweed: 0
pigweed; [8]
  Plant response rating, Pigweed: 0
pigweed; [9]
  Plant response rating, Pigweed: 40
nutsedge, yellow; [10]
  Plant response rating, Nutsedge, Yellow: 0
nutsedge, yellow; [11]
  Plant response rating, Nutsedge, Yellow: 0
nutsedge, yellow; [12]
  Plant response rating, Nutsedge, Yellow: 0
nutsedge, yellow; [13]
  Plant response rating, Nutsedge, Yellow: 0
nutsedge, yellow; [3]
  Nutsedge, Yellow plant response rating: 0
nutsedge, yellow; [4]
  Nutsedge, Yellow plant response rating: 0
nutsedge, yellow; [5]
  Plant response rating, Nutsedge, Yellow: 0
nutsedge, yellow; Preemergence, 250 g ai/ha
  Plant response rating (scale of 0 to 100), Nutsedge, Yellow: 55
